Where two headings read alike, the source gives them in different places.
Assays:
MDAMB453 = test: Alamar Blue (AB) cell proliferation assay, MDAMB453; type: cell-based
Description: (§1) A representative cell-proliferation assay protocol using Alamar Blue dye (stored at 4° C., use 20 ul per well) is described hereafter.
(§2) c. Plate 4,000-5,000 cells per well in 100 μl of medium and seed into a 96-well plate according to the following plate layout. Add cell culture medium only to wells B10 to B12. Wells B1 to B9 have cells but no compound added.
(§3) d. Add 100 μl of 2× drug dilution to each well in a concentration shown in the plate layout above. At the same time, add 100 μl of media into the control wells (wells B10 to B12). Total volume is 200 μl/well.
(§4) e. Incubate four (4) days at 37° C., 5% CO2 in a humidified incubator.
(§5) f. Add 20 μl Alamar Blue reagent to each well.
(§6) g. Incubate for four (4) hours at 37° C., 5% CO2 in a humidified incubator.
(§7) h. Record fluorescence at an excitation wavelength of 544 nm and emission wavelength of 590 nm using a microplate reader.
(§8) In the assays, cells are cultured with a test compound for approximately four days, the dye is then added to the cells and fluorescence of […] dye is detected after approximately four hours. Different types of cells can be utilized in the assays (e.g., HCT-116 human colorectal carcinoma cells, PC-3 human prostatic cancer cells, MDA-MB231 human breast cancer cells, K-562 human chronic myelogenous leukemia (CML) cells, MiaPaca human pancreatic carcinoma cells, MV-4 human acute myeloid leukemia cells, and BxPC3 human pancreatic adenocarcinoma cells).

[1] = test system: BxPC3 human pancreatic adenocarcinoma cells; test: Alamar Blue (AB) cell proliferation assay, BxPC3; type: cell-based
Description: as §1, §2, §3, §4, §5, §6, §7, §8

recombinant human Pim-2 = recombinant human Pim-2 (Homo sapiens, UniProt Q9P1W9); test: PIM-2 assay (33P-ATP filter plate); type: biochemical; conditions: 2.5 uM compound
Description: Test compounds dissolved and diluted in DMSO (2 μl) were added to a reaction mixture comprising 10 μl of 5× Reaction Buffer (40 mM MOPS pH 7.0, 5 mM EDTA), 10 of recombinant human Pim-2 solution (4 ng Pim-2 dissolved in dilution buffer (20 mM MOPS pH 7.0; EDTA 1 mM; 5% Glycerol; 0.01% Brij 35; […]; […] 2-mercaptoethanol; 1 mg/ml BSA)) and 8 ul of water. Reactions were initiated by the addition of 10 ul of ATP Solution (49% (15 mM MgCl2; 75 uM ATP) 1% ([γ-33P]ATP: Stock 1 mCi/100 μl; 3000 Ci/mmol (Perkin Elmer)) and 10 ul of substrate peptide solution (RSRSSYPAGT, dissolved in water at a concentration of 1 mM), Reactions were maintained for […] at 30° C. The reactions were quenched with 100 ul of 0.75% phosphoric acid, then transferred to and filtered through a Phosphocellulose filter plate (Millipore, MSPH-N6B-50). After washing each well 4 times with 0.75% phosphoric acid, scintillation fluid (20 μL) was added to each well and the residual radioactivity was measured using a Wallac luminescence counter.

recombinant human CK2 = target: T1, recombinant human CK2 (Homo sapiens, UniProt P68400); test: CK2 assay (cell-free, 33P-ATP filter plate); type: biochemical
T1 construct: purchased Upstate
Description: Modulatory activity of compounds described herein was assessed in vitro in cell-free CK2 assays by the following method.
Test compounds in aqueous solution were added at a volume of 10 microliters, to a reaction mixture comprising 10 microliters Assay Dilution Buffer (ADB; 20 mM MOPS, pH 7.2, 25 mM beta-glycerolphosphate, 5 mM EGTA, 1 mM sodium orthovanadate and 1 mM dithiothreitol), 10 microliters of substrate peptide (RRRDDDSDDD, dissolved in ADB at a concentration of 1 mM), 10 microliters of recombinant human CK2 (25 ng dissolved in ADB; Upstate). Reactions were initiated by the addition of 10 microliters of ATP Solution (90% 75 mM MgCl2, 75 micromolar ATP dissolved in ADB; 10% [γ-^33P]ATP (stock 1 mCi/100 μl; 3000 Ci/mmol (Perkin Elmer) and maintained for 10 minutes at 30° C. The reactions were quenched with 100 microliters of 0.75% phosphoric acid, then transferred to and filtered through a phosphocellulose filter plate (Millipore). After washing each well 5 times with 0.75% phosphoric acid, the plate was dried under vacuum for 5 min and, following the addition of 15 ul of scintilation fluid to each well, the residual radioactivity was measured using a Wallac luminescence counter.

Chain of recombinant human Pim-2 (Q9P1W9 whole entry): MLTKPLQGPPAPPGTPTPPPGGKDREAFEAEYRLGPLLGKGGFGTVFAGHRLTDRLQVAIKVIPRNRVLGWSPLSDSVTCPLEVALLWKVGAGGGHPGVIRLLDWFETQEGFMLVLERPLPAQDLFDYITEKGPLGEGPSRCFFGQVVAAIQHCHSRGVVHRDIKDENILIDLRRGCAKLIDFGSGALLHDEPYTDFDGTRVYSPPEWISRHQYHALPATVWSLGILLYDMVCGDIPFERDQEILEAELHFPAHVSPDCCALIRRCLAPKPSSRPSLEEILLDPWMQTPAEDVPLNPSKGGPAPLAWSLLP
T1 sequence (P68400 whole entry): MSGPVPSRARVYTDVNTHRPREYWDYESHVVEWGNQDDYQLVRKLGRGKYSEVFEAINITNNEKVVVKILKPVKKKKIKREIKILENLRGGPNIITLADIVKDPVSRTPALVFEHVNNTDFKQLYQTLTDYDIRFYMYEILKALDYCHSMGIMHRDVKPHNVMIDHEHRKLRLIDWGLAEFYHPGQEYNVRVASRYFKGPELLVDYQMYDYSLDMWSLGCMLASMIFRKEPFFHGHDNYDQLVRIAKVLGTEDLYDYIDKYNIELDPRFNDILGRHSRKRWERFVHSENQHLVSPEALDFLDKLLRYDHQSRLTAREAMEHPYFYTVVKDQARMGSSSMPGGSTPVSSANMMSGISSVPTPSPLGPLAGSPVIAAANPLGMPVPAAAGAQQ
T1 sequence (P67870 whole entry partner): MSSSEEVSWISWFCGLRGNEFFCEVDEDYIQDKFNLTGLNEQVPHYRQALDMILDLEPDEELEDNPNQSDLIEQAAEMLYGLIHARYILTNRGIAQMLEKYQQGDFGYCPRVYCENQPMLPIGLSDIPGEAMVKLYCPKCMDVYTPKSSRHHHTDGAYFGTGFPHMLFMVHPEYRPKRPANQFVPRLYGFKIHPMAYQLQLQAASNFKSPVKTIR

Question: How did the IC50 (MDAMB453; Homo sapiens, MDA-MB-453, MDAMB453 cells) turn out when `C[C@H](Nc1cc(NC2CC2)n2ncc(/C=C3\CC(=O)NC3=O)c2n1)c1ccccc1` [Example A12] was run?
Answer: Its IC50 is 6.09 µM.

Question: What about the IC50 ([1]; Homo sapiens, BXPC-3) of the same molecule?
Answer: The IC50 was 11.3 µM.

Question: What about the inhibition at 2.5 µM (recombinant human Pim-2; read-out: PIM2: % inh 2.5 uM) of the same molecule?
Answer: The inhibition at 2.5 µM was 6.72%.

Question: And the IC50 (recombinant human CK2)?
Answer: The IC50 was < 1 µM.

Question: For `O=C(O)CCCC(=O)OCN1C(=O)C/C(=C\c2cnn3c(NC4CC4)cc(Nc4cc(Cl)ccc4F)nc23)C1=O` [Example P2], which IC50 (MDAMB453; MDAMB453 cells) is on record?
Answer: The IC50 was > 30 µM.

Question: And the IC50 [1]?
Answer: Its IC50 is > 30 µM.

Question: What about the “PIM2: % inh 2.5 uM” value (recombinant human Pim-2) of the same molecule?
Answer: The value was 73.771%.

Question: What about the IC50 (recombinant human CK2) of the same molecule?
Answer: Its IC50 is < 0.1 µM.

Question: Which results are given for `CC(N)C(=O)OCN1C(=O)C/C(=C\c2cnn3c(NC4CC4)cc(Nc4cc(Cl)ccc4F)nc23)C1=O` (stereo not drawn) [Example P7, (E)-(3-((5-(5-chloro-2-fluorophenylamino)-7-(cyclopropylamino)pyrazolo[1,5-a]pyrimidin-3-yl)methylene)-2,5-dioxopyrrolidin-1-yl)methy 2-aminopropanoate]?
Answer: IC50 (MDAMB453; MDAMB453 cells): 10.5 µM; IC50 [1]: 12.4 µM; PIM2: % inh 2.5 uM (recombinant human Pim-2): 49.047%; IC50 (recombinant human CK2): < 1 µM

— patent US20110071115A1, “PHARMACEUTICALLY USEFUL HETEROCYCLE-SUBSTITUTED LACTAMS” (CYLENE PHARMACEUTICALS, INC., priority 2009, published 2011)
